From the Deep4Chem optical property database

Assay: solvent given as SMILES

Cc1ccc(S(=O)(=O)Nc2c(/C=C/c3ccccc3)sc(-c3ccc(N(C)C)cc3)c2-c2ccsc2)cc1
emission maximum (in CC#N): 627 nm

CN(C)c1ccc(C(=O)Nc2cccc(Br)c2)cc1
emission maximum (in C1CCCCC1): 338 nm | emission maximum (in C1CCOC1): 455 nm | emission maximum (in CC#N): 496 nm | emission maximum (in CCOCC): 445 nm

N#Cc1c(N2CCCCC2)cc(-c2cccc3ccccc23)c2c1-c1ccccc1C2=O
emission maximum (in C1CCOC1): 526 nm

CC1=CC(C)=[N+]2C1=C(c1ccc3cccnc3n1)c1c(C)cc(C)n1[B-]2(F)F
emission maximum (in CC#N): 516 nm | emission maximum (in CCCCCC): 524 nm | emission maximum (in CO): 521 nm | emission maximum (in ClC(Cl)Cl): 527 nm | emission maximum (in ClCCl): 522 nm

COc1cc2cc(/C=C/c3ccc(/C=C/c4ccc(/C=C(\C#N)C(=O)O)cc4)cc3)c(=O)oc2cc1OC
emission maximum (in CC#N): 489 nm

COc1ccc(C2=C3C=CC(=[N+](C)C)C=C3[Si](C)(C)c3cc(N(C)C)ccc32)c(OC)c1
emission maximum (in O): 663 nm

c1ccc(-n2c(-c3c(-n4c5ccccc5c5ccccc54)cccc3-n3c4ccccc4c4ccccc43)nc3ccccc32)cc1
emission maximum (in C1CCOC1): 418 nm

Fc1nc(F)c(F)c(C#Cc2ccccc2C#Cc2c(F)c(F)nc(F)c2F)c1F
emission maximum (in CC#N): 370 nm

c1ccc2c(-c3nc4sc5ccccc5c4s3)cccc2c1
emission maximum (in CS(C)=O): 447 nm

BrC1=CN2C[n+]3cc(Br)c4ccccc4c3N=C2c2ccccc21
emission maximum (in CO): 502 nm

O=C(O)C1=C/C(=C/C=[N+]2/c3cc(O)c(C[C@@H]4O[C@H](CO)[C@@H](O)C(O)[C@H]4O)cc3C[C@H]2C(=O)O)C[C@@H](C(=O)O)N1 (stereo partly drawn)
emission maximum (in CO): 611 nm | emission maximum (in O): 640 nm | emission maximum (in OCCO): 607 nm | emission maximum (in [2H]O[2H]): 640 nm

COC(=O)C1=C(C(=O)OC)C2(c3cc(Cl)ccc3-c3c(Cl)cc(Cl)cc32)C2(/C=C/c3ccccc3)c3cc(OC)c(OC)cc3CCN12 (stereo not drawn)
emission maximum (in ClCCl): 487 nm

CCOC(=O)/C(C#N)=C\c1ccc2c(c1)c1ccccc1n2-c1ccc(OC)cc1
emission maximum (in C1CCOC1): 460 nm | emission maximum (in CC#N): 522 nm | emission maximum (in CC(C)=O): 508 nm | emission maximum (in CCOC(C)=O): 479 nm | emission maximum (in CO): 532 nm | emission maximum (in CS(C)=O): 542 nm | emission maximum (in Cc1ccccc1): 455 nm | emission maximum (in ClC(Cl)Cl): 486 nm

CCCCCCn1c2cc(C=O)sc2c2sc3c(sc4c5sc(C=O)cc5n(CCCCCC)c43)c21
emission maximum (in ClCCl): 496 nm

CC(C)[Si](C#Cc1c2ccccc2c(C#C[Si](C(C)C)(C(C)C)C(C)C)c2nc3ccccc3nc12)(C(C)C)C(C)C
emission maximum (in CCCCCC): 577 nm | emission maximum (in ClCCl): 609 nm

CC(C)[Si](C#Cc1c2nc3c(nc2c(C#C[Si](C(C)C)(C(C)C)C(C)C)c2nc4c(nc12)C1c2ccccc2C4c2ccccc21)C1c2ccccc2C3c2ccccc21)(C(C)C)C(C)C
emission maximum (in CCCCCC): 466 nm

CCCCCCCCOc1cc(/C=C/c2cc(OCCCCCCCC)c(/C=C/c3cc(OCCCCCCCC)c(Br)cc3OCCCCCCCC)cc2OCCCCCCCC)c(OCCCCCCCC)cc1Br
emission maximum (in ClCCl): 467 nm

c1ccc2c(c1)Oc1ccccc1N2c1ccc2c(c1)c1cc(N3c4ccccc4Oc4ccccc43)ccc1c1nc3ccccc3nc21
emission maximum (in Cc1ccccc1): 614 nm

Cc1cn2cc(-c3ccc(C#N)cc3)[n-][n+]2c1
emission maximum (in ClCCl): 518 nm

COc1ccc2cc(/C=C/C3=CC(c4ccccc4)=[O+][B-](F)(F)O3)ccc2c1
emission maximum (in ClCCl): 566 nm

CCOC(=O)c1c2c3c(ccc([N+](=O)[O-])c3c3cc4c(cc13)[Si](C)(C)O[Si]4(C)C)N(C)C2=O
emission maximum (in CC#N): 413 nm

COc1ccc(-c2cnc3cccc(-c4ccc(C(C)=O)cc4)n23)cc1
emission maximum (in ClCCl): 537 nm

Cc1cccc(C)c1-c1cc2c(C)c3c4ccc5nc6c(ccc7c8c(C)c9cc(-c%10c(C)cccc%10C)c(-c%10c(C)cccc%10C)cc9c(C)c8c76)nc5c4c3c(C)c2cc1-c1c(C)cccc1C
emission maximum (in ClC(Cl)Cl): 670 nm

CCC1(CC)c2cc(Br)ccc2-c2c1c1c(c3c2C(CC)(CC)c2cc(-c4cccs4)ccc2-3)C(CC)(CC)c2cc(Br)ccc2-1
emission maximum (in C1CCOC1): 371 nm

CCOC(CN1C(=O)C2=C(c3ccsc3)N(CC(OCC)OCC)C(=O)C2=C1c1ccsc1)OCC
emission maximum (in ClC(Cl)Cl): 524 nm
